Assays:
SS cells = assay: Oxygen dissociation curve (P50) of sickle cells; type: cell-based, human
Excerpt: (§1) The uptake of oxygen by haemoglobin as a function of oxygen pressure gives a measure of the oxygen affinity of the haemoglobin and is often described by the value of P50, i.e. the pressure of oxygen at which haemoglobin is 50% saturated with O2. The P50 for HbS is typically higher than that for HbA, the decreased affinity for O2 compensating for the anaemia associated with the disease by facilitating release of O2 to the tissues. An agent which would decrease the P50 of HbS would cause the deoxy-form of the molecule to be less favoured and would thus inhibit polymerisation. It is possible to correlate the degree of oxygenation of sickle erythrocytes with the ability thereof to assume sickled morphology by counting deoxygenated cells using a light microscope. An anti-sickling agent which reduces the number of sickled cells produced at low oxygen concentrations would be effective in preventing or diminishing a crisis.

[1] = Solubility in physiological buffers; type: physicochemical
HbS = assay: Rate of polymerisation of HbS: lag time before onset of gelation after temperature jump; type: biochemical, human; details: different molar ratios of dipeptide:HbS, FIG. 4
Experimental: The rate of polymerisation of HbS molecules may be followed by spectrophotometrically monitoring the onset of gelation, after a temperature jump from 0° C. to 37° C., in a concentrated HbS solution. An effective anti-sickling agent should reduce the rate of polymerisation by at least ten-fold.

[2] = tested on: sickle cell haemoglobin (HbS); assay: HbS gelation assay (solubility Csol of deoxygenated HbS); type: biochemical, human
Experimental: A number of in vitro methods have been developed for testing the effects of compounds of the functioning of HbS molecules. One such method determines the ability of a compound to inhibit gel formation in HbS solutions. In this gelation assay, Hb solution in phosphate buffer, pH 7.0, at physiological concentrations are mixed at 0° C. with the test compound and deoxygenated by evacuation. […] The solutions are then transferred to centrifuge tubes and equilibrated at 37° C. for 30 minutes before centrifugation at 150,000 g for 1 hour. The supernatant is decanted from the gel and the Hb concentration (Csol) thereof determined spectrophotometrically. For sickle cell haemoglobin without addition of anti-sickling agent, the Csol is typically 17 gm/dl. This compares with a Csol of 23 gm/dl for haemoglobin extracted from individuals having sickle cell trait.

whole sickle cells = assay: Microscopic whole cell sickling assay; type: cell-based, human
Excerpt: as §1
There are fewer sickle cells in the presence of the dipeptide over the entire range of oxygen concentration. […] In vivo, this increased reversibility would reduce the number of circulating irreversibly sickled cells (ISC).

L-lysine-L-phenylalanine
P50 (SS cells; SS cells + 25 mM peptide, 3 hours incubation at 37° C., 5:1 molar ratio extra-cellular dipeptide:intra-cellular HbS, 51 mm without peptide): 41 mm of mercury
oxygen affinity of cells (SS cells; incubation with peptide): increase in oxygen affinity
solubility in physiological buffers [1]: readily soluble
lag time before gelation (rate of polymerisation) (HbS): increase in the delay before gelation
effect on Csol of HbS ([2]; FIG. 2): increase in Csol
inhibition of gelation of deoxygenated HbS solutions ([2]; in vitro): inhibit the gelation
Csol (solubility of homozygous sickle cell haemoglobin) ([2]; peptide:Hb tetramer ratio of 4.7:1, from linear plot of Csol versus log (peptide:Hb), HbS without agent typically 17 gm/dl): 23 gm/dl
increase of HbS solubility over L-phenylalanine ([2]; relative to L-phenylalanine): four-fold
inhibition of whole cell sickling (whole sickle cells): inhibits whole cell sickling
proportion of sickled cells becoming unsickled as oxygen is made available (whole sickle cells; compared with control): a greater proportion becomes unsickled
IC50 (whole sickle cells; complete deoxygenation, in vitro dose response, FIG. 9, read-out: extra-cellular concentration reducing the number of sickled cells by 50%): ~5 mM
percentage of sickled cells (whole sickle cells; pre-incubation with peptide, different partial pressures of oxygen): substantially reduced
pre-incubation time sufficient to protect against sickling (whole sickle cells; zero oxygen tension, FIG. 8): 15 min

Source: patent US4376766A, “Anti-sickling agents” (G.D. Searle & Co., priority 1980, dated 1983)
